Here are results for one compound from patent US20050089473A1, “Potassium channel mediated delivery of agents through the blood-brain barrier” (Cedars-Sinai Medical Center, priority 2003, published 2005).

One test has as its system intracerebral RG2 tumors. In words: In vivo BTB permeability (Ki by quantitative autoradiography) in RG2 tumor-bearing rats. Set-up: species or system rat. The following applies: i.c. MS 30 μg/kg/min, RG2 tumor.
The subject of the next test is KATP channels. Briefly: Membrane potential assay of KATP channel activity. Conditions: RBEC, HBMVEC, RG2 and GBM cells. It counts as cell-based, human. As to the method: Functional activities of putative KATP channels in HBMVEC and GBM cells were measured by detecting changes in voltage across the cell membrane as described earlier (Ningarsj, N. S., Rao, M., Hashizume, K., Asotra, K., and Black, K. L. Regulation of blood-brain tumor barrier permeability by calcium-activated potassium channels J. Pharmacol. Exp. Ther., 301:838-851, 2002). A membrane potential assay kit (Molecular Devices, Sunnyvale, Calif.) provided a fast, simple and consistent mix-and-read procedure. In brief, HBMVEC and GBM cells obtained from cell passages 2-5 was suspended in 5 ml of growth medium. In two separate experiments, the cell density was adjusted to 1×10^3 cells/well and coated in sterile, clear bottom, blank 96-well plates (Corning, Inc., Acton, Mass.), pre-coated with poly L-Lysine, and allowed to achieve a monolayer within 24 h. The monolayer cells were incubated with the membrane potential assay kit reagents for 30 min and read directly by FLEXstation. The anionic pchemiometric dye that traverses between cells and the extracellular solution in a membrane potential-dependent manner serves as an indicator of vasomodulator-induced voltage changes across the cell membrane. […] Additionally, the effects of the optimum dose (10 μM) of MS and glibenclamide (100 nM) on KATP channels activity in HBMVEC and GBM cells were determined.

Counter-ions that a name gives are not always drawn.

Protocol for intracerebral RG2 tumors: All animal experiments were conducted in accordance with policies set by the Institutional Animal Care and Usage Committee and NIH guidelines. A rat syngeneic tumor model was prepared using female Wistar rats and a human-tumor xenograft model in athymic nude rats weighing 180-200 g were prepared for the BBB/BTB permeability studies. […] Rat glioma (RG2) cells (1×10^5) in 5 μl of medium with 1.2% methylcellulose were injected into the basal ganglia of Wistar rats, while nude rats were injected with glioblastoma multiforme (GBM) primary cells (5×10^5). The coordinates were 5-mm lateral to the bregma and 4.5 mm deep to the basal ganglia. […] In regional permeability studies, 5 min after the start of the intracarotid (i.c.) infusion, 100 μCi/kg of [^14C] […]
The Ki was determined for radiotracers, [^14C]-AIB, [^14C]-carboplatin, and [^14C] dextran in the tumor core, tumor-adjacent brain tissue, and contralateral brain tissue using the quantitative autoradiographic (QAR) method as described earlier (Ningarsj, N. S., Rao, M., Hashizume, K., Asotra, K., and Black, K. L. Regulation of blood-brain tumor barrier permeability by calcium-activated potassium channels J. Pharmacol. Exp. Ther., 301:838-851, 2002; Ningaraj, N. S., Rao, M., and Black, K. L. Calcium-dependent potassium channels as a target protein ir. the modulation of blood-brain humor barrier.

`Nc1cc(N2CCCCC2)nc(N)[n+]1OS(=O)(=O)[O-]` [MS, minoxidil sulfate]: in the test with intracerebral RG2 tumors, the “Delivery of [14C]-labeled AIB, dextran and carboplatin across the BTB” value is reported as “significantly enhanced delivery”. Also, the “Membrane potential dye fluorescence intensity” value in the test with KATP channels is on record as “dose-dependent decrease”.
